4 compounds from paper PMC7827406, “Structure–Activity Relationship (SAR) Study of Spautin-1 to Entail the Discovery of Novel NEK4 Inhibitors” (International Journal of Molecular Sciences, 2021) can be followed below.

Holding throughout (assay): biochemical
What all share (parameters): Eurofins KinaseProfiler full panel at Km ATP, residual kinase activity (%) relative to DMSO

One test deals with T1, CHK2(R145W)(h) (Homo sapiens, UniProt O96017, R145W).
T1 construct: gene CHEK2
The essentials: (§1)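 Radiometric kinase activity assays were run with ATP at Km and compounds at 10 µM, and remaining activity (%) was reported. A separate competitive binding screen measured DNA-tagged kinase displaced from immobilized active-site ligands by qPCR, giving percent kinase still bound at 10 µM compound in DMSO.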

In a further test the target is FGFR2(h) (Homo sapiens, UniProt P21802). In short, it runs like this: as §1
Sequence of FGFR2(h) (P21802 whole entry): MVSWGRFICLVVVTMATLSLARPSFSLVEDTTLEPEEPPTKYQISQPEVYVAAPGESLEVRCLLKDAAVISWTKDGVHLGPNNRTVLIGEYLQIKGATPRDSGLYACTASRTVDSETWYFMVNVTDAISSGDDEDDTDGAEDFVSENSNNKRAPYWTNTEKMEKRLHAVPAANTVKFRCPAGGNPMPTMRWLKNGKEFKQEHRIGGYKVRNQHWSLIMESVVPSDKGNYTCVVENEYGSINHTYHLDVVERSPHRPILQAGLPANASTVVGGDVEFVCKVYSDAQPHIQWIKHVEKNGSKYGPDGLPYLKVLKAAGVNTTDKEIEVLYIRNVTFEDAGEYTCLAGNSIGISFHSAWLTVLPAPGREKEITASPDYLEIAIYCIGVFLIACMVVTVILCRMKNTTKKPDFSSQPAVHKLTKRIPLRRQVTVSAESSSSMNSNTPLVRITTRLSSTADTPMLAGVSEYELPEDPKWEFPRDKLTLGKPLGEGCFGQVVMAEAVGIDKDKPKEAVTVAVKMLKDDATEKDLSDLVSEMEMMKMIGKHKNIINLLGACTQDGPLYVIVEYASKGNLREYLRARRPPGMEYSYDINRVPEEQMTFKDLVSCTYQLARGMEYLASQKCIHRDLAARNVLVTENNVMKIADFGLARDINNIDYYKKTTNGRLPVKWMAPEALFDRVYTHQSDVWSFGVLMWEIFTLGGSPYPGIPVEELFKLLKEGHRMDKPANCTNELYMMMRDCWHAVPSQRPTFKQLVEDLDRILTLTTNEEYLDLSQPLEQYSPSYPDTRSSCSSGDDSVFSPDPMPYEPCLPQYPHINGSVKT
For a further test, the target named is Hck(h) (Homo sapiens, UniProt P08631). In short, it runs like this:
as §1

In the next test the target is T2, IGF-1R(h) (Homo sapiens, UniProt P08069).
T2 construct: gene IGF1R
In short, it runs like this: as §1

For a further test, the target named is NEK7(h) (Homo sapiens, UniProt Q8TDX7). In short, it runs like this:
as §1

The target of another test is T3, NIM1(h) (Homo sapiens, UniProt Q8IY84).
T3 construct: gene NIM1K
T3 sequence (Q8IY84 whole entry): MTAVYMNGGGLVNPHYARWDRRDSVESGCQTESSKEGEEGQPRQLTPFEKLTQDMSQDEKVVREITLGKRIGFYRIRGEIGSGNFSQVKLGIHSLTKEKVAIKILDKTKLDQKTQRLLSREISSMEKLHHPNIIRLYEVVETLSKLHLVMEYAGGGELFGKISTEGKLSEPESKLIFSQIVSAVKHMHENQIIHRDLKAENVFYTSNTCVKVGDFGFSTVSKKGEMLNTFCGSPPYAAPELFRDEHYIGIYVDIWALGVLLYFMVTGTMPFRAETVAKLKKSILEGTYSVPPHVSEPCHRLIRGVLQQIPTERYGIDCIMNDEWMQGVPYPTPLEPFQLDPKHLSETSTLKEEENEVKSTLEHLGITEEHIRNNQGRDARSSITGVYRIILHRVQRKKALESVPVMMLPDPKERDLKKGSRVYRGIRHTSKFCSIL
The essentials:
as §1

The target in the next test is T4, NLK(h) (Homo sapiens, UniProt Q9UBE8).
T4 sequence (Q9UBE8 1-527): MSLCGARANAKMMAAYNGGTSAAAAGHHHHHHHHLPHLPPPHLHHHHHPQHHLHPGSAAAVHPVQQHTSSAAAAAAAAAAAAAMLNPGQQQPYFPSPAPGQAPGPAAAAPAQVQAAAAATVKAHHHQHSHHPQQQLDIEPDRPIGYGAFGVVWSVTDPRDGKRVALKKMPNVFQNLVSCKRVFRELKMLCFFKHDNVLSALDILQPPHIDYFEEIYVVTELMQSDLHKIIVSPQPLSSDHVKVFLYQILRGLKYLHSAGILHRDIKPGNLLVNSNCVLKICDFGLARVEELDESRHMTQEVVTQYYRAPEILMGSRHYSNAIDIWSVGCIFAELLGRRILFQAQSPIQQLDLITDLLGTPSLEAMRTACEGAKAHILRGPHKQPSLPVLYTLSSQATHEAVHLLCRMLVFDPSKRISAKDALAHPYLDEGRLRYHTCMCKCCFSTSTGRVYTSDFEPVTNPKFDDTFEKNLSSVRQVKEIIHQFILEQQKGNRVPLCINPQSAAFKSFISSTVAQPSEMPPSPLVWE
In short, it runs like this:
as §1

The target of a further test is T5, PIP5K1g(h) (Homo sapiens, UniProt O60331).
T5 construct: gene PIP5K1C
T5 sequence (O60331 whole entry): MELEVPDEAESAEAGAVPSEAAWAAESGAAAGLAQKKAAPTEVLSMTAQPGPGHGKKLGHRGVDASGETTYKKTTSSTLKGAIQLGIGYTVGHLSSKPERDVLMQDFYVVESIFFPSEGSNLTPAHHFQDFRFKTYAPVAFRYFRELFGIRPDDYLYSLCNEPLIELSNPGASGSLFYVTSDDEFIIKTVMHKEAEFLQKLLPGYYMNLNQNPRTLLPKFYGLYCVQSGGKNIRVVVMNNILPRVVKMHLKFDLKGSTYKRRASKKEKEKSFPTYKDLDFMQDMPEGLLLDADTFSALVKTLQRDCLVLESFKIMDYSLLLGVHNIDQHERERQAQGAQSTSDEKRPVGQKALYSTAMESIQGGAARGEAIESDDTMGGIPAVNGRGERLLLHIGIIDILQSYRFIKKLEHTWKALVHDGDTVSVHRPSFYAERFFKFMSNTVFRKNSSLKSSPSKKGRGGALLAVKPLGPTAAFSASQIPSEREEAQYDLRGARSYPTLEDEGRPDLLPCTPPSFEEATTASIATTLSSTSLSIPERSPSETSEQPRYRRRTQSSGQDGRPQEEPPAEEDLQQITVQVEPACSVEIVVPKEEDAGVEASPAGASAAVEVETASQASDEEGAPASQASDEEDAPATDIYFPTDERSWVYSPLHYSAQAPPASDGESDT
The essentials:
as §1

The target of a further test is Ret (V804L)(h) (Homo sapiens, UniProt P07949, V804L). In short, it runs like this: as §1
Sequence of Ret (V804L)(h) (P07949 whole entry V804L): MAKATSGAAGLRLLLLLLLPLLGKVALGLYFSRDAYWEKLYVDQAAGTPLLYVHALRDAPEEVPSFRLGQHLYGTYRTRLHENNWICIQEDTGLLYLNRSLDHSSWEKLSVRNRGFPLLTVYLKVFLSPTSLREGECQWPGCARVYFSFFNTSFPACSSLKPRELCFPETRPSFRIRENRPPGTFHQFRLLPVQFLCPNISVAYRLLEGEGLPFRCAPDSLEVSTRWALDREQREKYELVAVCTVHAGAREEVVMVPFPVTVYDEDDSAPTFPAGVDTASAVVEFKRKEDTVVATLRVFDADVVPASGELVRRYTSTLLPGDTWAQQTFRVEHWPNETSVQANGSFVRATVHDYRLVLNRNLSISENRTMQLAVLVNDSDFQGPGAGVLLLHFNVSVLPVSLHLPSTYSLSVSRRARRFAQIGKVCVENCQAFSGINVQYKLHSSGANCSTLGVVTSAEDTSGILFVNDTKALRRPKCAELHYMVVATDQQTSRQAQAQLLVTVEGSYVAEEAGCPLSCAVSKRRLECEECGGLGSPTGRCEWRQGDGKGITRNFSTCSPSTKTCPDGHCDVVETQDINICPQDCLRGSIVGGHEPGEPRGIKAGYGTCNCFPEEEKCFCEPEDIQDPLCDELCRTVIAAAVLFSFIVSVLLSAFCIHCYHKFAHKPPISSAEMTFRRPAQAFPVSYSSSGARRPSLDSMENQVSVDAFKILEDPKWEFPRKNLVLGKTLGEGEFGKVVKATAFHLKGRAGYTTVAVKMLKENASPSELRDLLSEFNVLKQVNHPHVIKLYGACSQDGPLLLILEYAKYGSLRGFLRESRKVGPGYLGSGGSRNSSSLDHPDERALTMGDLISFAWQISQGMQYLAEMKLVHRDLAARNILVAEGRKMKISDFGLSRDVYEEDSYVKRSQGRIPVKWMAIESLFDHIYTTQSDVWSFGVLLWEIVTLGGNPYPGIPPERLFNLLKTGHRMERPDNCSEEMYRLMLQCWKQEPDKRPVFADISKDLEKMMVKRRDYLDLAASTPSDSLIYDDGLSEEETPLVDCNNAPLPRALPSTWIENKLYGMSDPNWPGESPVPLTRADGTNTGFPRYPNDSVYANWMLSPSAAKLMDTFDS
The next test concerns the target Src(T341M)(h) (Homo sapiens, UniProt P12931, T341M). In short, it runs like this:
as §1

The next test addresses Syk(h) (Homo sapiens, UniProt P43405). In short, it runs like this:
as §1

For a further test, the target named is T6, TBK1(h) (Homo sapiens, UniProt Q9UHD2).
T6 sequence (Q9UHD2 1-729): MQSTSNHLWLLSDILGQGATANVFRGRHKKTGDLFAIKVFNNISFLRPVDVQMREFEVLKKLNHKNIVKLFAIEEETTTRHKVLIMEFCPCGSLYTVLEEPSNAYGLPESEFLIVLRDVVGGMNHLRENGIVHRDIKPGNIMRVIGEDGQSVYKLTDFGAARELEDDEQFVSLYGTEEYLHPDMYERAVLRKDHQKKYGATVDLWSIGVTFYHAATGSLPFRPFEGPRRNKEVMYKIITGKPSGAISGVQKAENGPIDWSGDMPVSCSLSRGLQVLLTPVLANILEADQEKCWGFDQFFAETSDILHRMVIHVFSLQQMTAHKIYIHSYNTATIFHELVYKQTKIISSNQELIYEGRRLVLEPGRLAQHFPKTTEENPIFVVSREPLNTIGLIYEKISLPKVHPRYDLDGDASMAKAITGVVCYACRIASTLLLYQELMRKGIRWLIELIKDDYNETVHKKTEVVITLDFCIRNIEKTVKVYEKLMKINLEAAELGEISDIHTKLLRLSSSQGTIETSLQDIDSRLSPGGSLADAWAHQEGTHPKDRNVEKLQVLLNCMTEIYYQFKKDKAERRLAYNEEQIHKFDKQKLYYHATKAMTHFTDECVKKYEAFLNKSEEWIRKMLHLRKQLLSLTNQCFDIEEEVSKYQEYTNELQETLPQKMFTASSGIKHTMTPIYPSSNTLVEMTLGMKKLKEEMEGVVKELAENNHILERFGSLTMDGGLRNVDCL
In short, it runs like this:
as §1

The mark [1] stands for this setting: read-out: Residual activity (%) 5at.
[2] abbreviates: read-out: Residual activity (%) 5ay.
Where [3] appears, read: read-out: Residual activity (%) 5as.
Where [4] appears, read: read-out: Residual activity (%) Spautin-1 5aa.

Like-named read-outs stand apart in the source and are kept apart here.

Sequence of NEK7(h) (Q8TDX7 whole entry): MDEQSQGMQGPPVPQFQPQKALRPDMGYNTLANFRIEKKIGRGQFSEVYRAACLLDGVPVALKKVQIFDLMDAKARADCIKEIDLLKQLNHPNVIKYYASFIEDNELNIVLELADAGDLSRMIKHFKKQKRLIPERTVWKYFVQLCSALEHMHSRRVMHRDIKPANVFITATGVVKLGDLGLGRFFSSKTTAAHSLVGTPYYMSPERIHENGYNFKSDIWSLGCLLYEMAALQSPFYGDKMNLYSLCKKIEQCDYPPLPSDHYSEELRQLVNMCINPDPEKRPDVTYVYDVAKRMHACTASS
T1 sequence (O96017 whole entry R145W): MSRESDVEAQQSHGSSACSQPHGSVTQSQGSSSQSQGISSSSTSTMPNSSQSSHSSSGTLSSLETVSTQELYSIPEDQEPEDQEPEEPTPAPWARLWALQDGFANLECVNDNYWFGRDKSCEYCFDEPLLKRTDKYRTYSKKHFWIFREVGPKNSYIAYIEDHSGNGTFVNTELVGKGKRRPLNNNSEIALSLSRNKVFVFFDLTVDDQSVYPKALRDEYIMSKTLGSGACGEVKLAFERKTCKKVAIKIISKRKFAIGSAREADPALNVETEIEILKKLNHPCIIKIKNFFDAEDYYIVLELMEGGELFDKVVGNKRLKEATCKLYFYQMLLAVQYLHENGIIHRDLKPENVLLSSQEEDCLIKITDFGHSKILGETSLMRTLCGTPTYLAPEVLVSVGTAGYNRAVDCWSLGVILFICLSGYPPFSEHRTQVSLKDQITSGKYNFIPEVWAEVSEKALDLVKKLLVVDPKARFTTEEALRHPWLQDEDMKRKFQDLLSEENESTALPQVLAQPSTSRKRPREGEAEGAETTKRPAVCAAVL
Sequence of Src(T341M)(h) (P12931 whole entry T341M): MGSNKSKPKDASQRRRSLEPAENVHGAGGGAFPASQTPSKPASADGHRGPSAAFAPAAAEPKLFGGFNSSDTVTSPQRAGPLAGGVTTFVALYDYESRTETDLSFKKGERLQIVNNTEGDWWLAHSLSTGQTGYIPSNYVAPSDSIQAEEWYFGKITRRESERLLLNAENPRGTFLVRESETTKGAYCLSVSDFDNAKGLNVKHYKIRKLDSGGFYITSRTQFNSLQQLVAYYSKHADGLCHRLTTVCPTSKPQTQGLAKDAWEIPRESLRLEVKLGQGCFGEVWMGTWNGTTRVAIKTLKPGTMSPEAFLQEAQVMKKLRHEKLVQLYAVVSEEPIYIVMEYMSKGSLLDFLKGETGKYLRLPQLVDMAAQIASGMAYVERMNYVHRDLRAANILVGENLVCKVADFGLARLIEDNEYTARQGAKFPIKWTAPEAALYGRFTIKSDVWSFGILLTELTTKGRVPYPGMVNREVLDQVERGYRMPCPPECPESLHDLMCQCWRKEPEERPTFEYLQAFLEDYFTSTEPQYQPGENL
Sequence of Hck(h) (P08631 whole entry): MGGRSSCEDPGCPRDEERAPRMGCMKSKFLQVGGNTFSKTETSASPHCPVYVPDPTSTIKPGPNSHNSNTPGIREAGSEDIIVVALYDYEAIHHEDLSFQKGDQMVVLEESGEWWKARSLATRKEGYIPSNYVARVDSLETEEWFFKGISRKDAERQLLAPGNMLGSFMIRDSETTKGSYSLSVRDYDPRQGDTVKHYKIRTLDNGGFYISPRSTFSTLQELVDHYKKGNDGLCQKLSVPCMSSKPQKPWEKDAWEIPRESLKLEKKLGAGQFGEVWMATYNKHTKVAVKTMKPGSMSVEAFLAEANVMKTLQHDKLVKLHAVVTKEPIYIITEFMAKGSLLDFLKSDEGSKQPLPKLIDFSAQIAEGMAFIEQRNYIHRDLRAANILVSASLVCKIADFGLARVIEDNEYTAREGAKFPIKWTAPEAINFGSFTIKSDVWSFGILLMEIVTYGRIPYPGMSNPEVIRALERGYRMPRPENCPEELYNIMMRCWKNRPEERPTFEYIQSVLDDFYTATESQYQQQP

Consider `Fc1ccc2ncnc(NCCc3ccc(Cl)cc3)c2c1` [5at, N-[2-(4-Chlorophenyl)Ethyl]-6-Fluoro-4-Quinazolinamine], for which the remaining activity at 10 µM at CHK2(R145W)(h) (setting [1]) was found to be 91%; on FGFR2(h) (setting [1]) it was 84%; at Hck(h) (setting [1]) it was 62%; at IGF-1R(h) (setting [1]), 83%; on NEK7(h) (setting [1]) it was 83%; at NIM1(h) (setting [1]), 110%. Besides, the remaining activity at 10 µM on NLK(h) (setting [1]) is 82%; at PIP5K1g(h) (setting [1]) it was 101%; at Ret (V804L)(h) (setting [1]) it was 71%; at Src(T341M)(h) (setting [1]), 83%; at Syk(h) (setting [1]) it was 92%; at TBK1(h) (setting [1]), 108%.

For `COc1ccc2ncnc(Nc3cccc(F)c3)c2c1` [5ay, N-(3-Fluorophenyl)-6-Methoxy-4-Quinazolinamine], the remaining activity at 10 µM on CHK2(R145W)(h) (setting [2]) was found to be 87%; on FGFR2(h) (setting [2]), 96%; on Hck(h) (setting [2]) it was 64%; at IGF-1R(h) (setting [2]), 101%; at NEK7(h) (setting [2]), 76%; on NIM1(h) (setting [2]), 97%. Also, the remaining activity at 10 µM was 80% on NLK(h) (setting [2]); 107% at PIP5K1g(h) (setting [2]); 91% at Ret (V804L)(h) (setting [2]); 96% at Src(T341M)(h) (setting [2]); 110% on Syk(h) (setting [2]); 117% on TBK1(h) (setting [2]).

`Fc1ccc(CCNc2ncnc3ccc(F)cc23)cc1` [5as, 6-Fluoro-N-[2-(4-Fluorophenyl)Ethyl]-4-Quinazolinamine]: the remaining activity at 10 µM came to 90% on CHK2(R145W)(h) (setting [3]); 99% on FGFR2(h) (setting [3]); 74% at Hck(h) (setting [3]); 83% on IGF-1R(h) (setting [3]); 74% at NEK7(h) (setting [3]); 113% at NIM1(h) (setting [3]). The remaining activity at 10 µM at NLK(h) (setting [3]) is 93%; on PIP5K1g(h) (setting [3]), 104%; at Ret (V804L)(h) (setting [3]), 78%; at Src(T341M)(h) (setting [3]) it was 103%; on Syk(h) (setting [3]), 84%; at TBK1(h) (setting [3]) it was 108%.

Regarding `Fc1ccc(CNc2ncnc3ccc(F)cc23)cc1` [5aa, 6-Fluoro-N-(4-fluorobenzyl)-4-Quinazolinamine], the remaining activity at 10 µM at CHK2(R145W)(h) (setting [4]) is 101%; at FGFR2(h) (setting [4]) it was 91%; at Hck(h) (setting [4]) it was 72%; at IGF-1R(h) (setting [4]), 90%; at NEK7(h) (setting [4]) it was 95%; on NIM1(h) (setting [4]), 108%. The remaining activity at 10 µM at NLK(h) (setting [4]) stood at 85%; at PIP5K1g(h) (setting [4]) it was 100%; at Ret (V804L)(h) (setting [4]) it was 82%; on Src(T341M)(h) (setting [4]), 94%; at Syk(h) (setting [4]), 113%; at TBK1(h) (setting [4]) it was 126%.
